# Values quoted from earlier work, collected in patent US8911765B2, “Biodegradable, polymer coverings for breast implants” (Tyrx, Inc., priority 2007, dated 2014).
# Settings: rabbit, in vivo
smiles,measurement,value
"O=S(=O)([O-])CCS.[Na+] [Mesna, sodium 2-mercaptoethane sulfonate]",capsule formation around implants,reduce capsule formation
